Measurements taken from patent US20250376498A1, “FUSION PROTEINS COMPRISING AN IMPROVED GLP-1 RECEPTOR AGONIST AND USES THEREOF” (Guangzhou Innogen Pharmaceutical Group Co., Ltd., priority 2022, published 2025).
“Also recorded” adds a separate entry of the source.

B1: YN-011: GLP-1 fusion protein of SEQ ID NO: 7: GLP-1 (A8G, G22E, R36G), linker peptide and IgG2/Fc domain (C222S, A330S, P331S) (protein)
chain: HGEGTFTSDVSSYLEEQAAKEFIAWLVKGGGSSGAPPPSGGGGSERKSCVECPPCPAPPVAGPSVFLFPPKPKDTLMISRTPEVTCVVVDVSHEDPEVQFNWYVDGVEVHNAKTKPREEQFNSTFRVVSVLTVVHQDWLNGKEYKCKVSNKGLPSSIEKTISKTKGQPREPQVYTLPPSREEMTKNQVSLTCLVKGFYPSDIAVEWESNGQPENNYKTTPPMLDSDGSFFLYSKLTVDKSRWQQGNVFSCSVMHEALHNHYTQKSLSLSPG

What was measured:
SH-SY5Y neuronal cells [1] = experiment: Apoptosis in TNF-α-induced SH-SY5Y cells (cleaved-caspase 3 immunofluorescence); type: cell-based; conditions: 60 ng/ml TNF-α, 48 hours; YN-011 10, 100, 500 nM; GABA 1, 10, 100 μM; combination 100 μM GABA + 100 nM YN-011
Method: The experimental procedure is as follows: • 1) Digest the SH-SY5Y neuronal cells in a 10 cm culture dish using 0.25% trypsin to prepare a single-cell suspension. Seed the single-cell suspension into a 24-well plate, placing a sterile coverslip in each well. • 2) Place the culture plate in a CO2 incubator and pre-culture overnight at 37° C. with 5% CO2 to allow the cells to adhere. • 3) Using medium containing 5% FBS, treat the cells in each well with 60 ng/ml TNF-α alone or co-treated with 10, 100, or 500 nM YN-011 at 37° C. for 48 hours. […]

SH-SY5Y neuronal cells [2] = experiment: TNF-α-induced damage in SH-SY5Y cells (Hoechst 33342 live cell staining); type: cell-based; conditions: 60 ng/ml TNF-α, 48 hours; YN-011 10, 100, 500 nM; GABA 1, 10, 100 μM; combination 100 μM GABA + 100 nM YN-011
Method: Digest the SH-SY5Y neuronal cells in a 10 cm culture dish using 0.25% trypsin to prepare a single-cell suspension. Seed the single-cell suspension into a 24-well plate. Place the culture plate in a CO2 incubator and pre-culture overnight at 37° C. with 5% CO2 to allow the cells to adhere. Treat the cells in each well with 20, 40, 60, or 80 ng/ml TNF-α using medium containing 5% FBS at 37° C. for 48 hours. Each drug treatment is performed in three replicate wells. Add the fluorescent dye Hoechst 33342 (Beyotime) at a dilution of 1:1000 to the wells, and incubate the plate at 37° C. for 10 minutes. Remove the culture medium, gently wash twice with PBS, and immediately take the plate to a fluorescence microscope for imaging (20× magnification). Capture 10 fields of view for each cell well and count the number of blue-stained positive cells in each field of view.
Please refer to section 8.7 for the experimental procedure, but the drug treatment in this experiment is different from that in section 8.7. In this experiment, the drug treatment is as follows: using medium containing 5% FBS, treat the cells in each well with 60 ng/ml TNF-α alone or co-treated with 10, 100, or 500 nM YN-011 at 37° C. for 48 hours. Each drug treatment is performed in three replicate wells. […]

Molecule	apoptosis in TNF-α-induced neuronal cells (cleaved-caspase 3 positive cells) (SH-SY5Y neuronal cells [1])	TNF-α-induced damage in neuronal cells (Hoechst 33342 positive cells) (SH-SY5Y neuronal cells [2])
NCCCC(=O)O [GABA, γ-aminobutyric acid]	reduces apoptosis; also recorded: reduction of apoptosis	protective effect
B1	significantly reduces apoptosis; also recorded: reduction of apoptosis	protective effect
